Read-outs that look alike come from different tables or passages of the source.

Results on 19 compounds are retold here after publication PMC7076710, “Synthesis, Identification, and Structure–Activity Relationship Analysis of GATA4 and NKX2-5 Protein–Protein Interaction Modulators” (Journal of Medicinal Chemistry, 2019).

What all share (type): cell-based
Test [1] deals with T1, GATA4–NKX2-5 transcriptional synergy (Mus musculus, UniProt P42582+Q08369).
T1 construct: expressed in transfected cells; host or cells: COS-1
Put plainly: GATA4–NKX2-5 transcriptional synergy luciferase reporter assay (3xNKE reporter, COS-1 cells).

Test [2] concerns the target T2, NKX2-5 transcriptional activity (Mus musculus, UniProt P42582).
T2 construct: expressed in transfected cells; host or cells: COS-1
As to the kind of experiment: NKX2-5 luciferase reporter assay (3xNKE reporter, COS-1 cells). The note with it: for activity at 3 µM: read-out: NKX.3µM; for activity at 10 µM: read-out: NKX.10µM. As for the experimental part: (§1) To screen compounds for the GATA4–NKX2-5 interaction, we have developed a luciferase reporter assay based on their property to activate gene transcription synergistically through the NKX2-5 binding site on DNA.[28] In this assay, we transfected mammalian COS-1 cells with protein expression vectors for GATA4 and NKX2-5 proteins together with artificial luciferase reporter vector containing three high affinity binding sites for NKX2-5 (NKE). […] All 257 compounds were tested in two concentrations, 3 and 10 μM. Compounds either inhibited, enhanced, or had no effect on the GATA4–NKX2-5 transcriptional synergy. To investigate the selectivity of the active compounds, we tested their effects on NKX2-5 transcriptional activity by using the same luciferase reporter vector as in transcriptional synergy assay with three NKE sites (Figure 3B). Furthermore, we used GATA luciferase reporter assay to examine if compounds have an effect on GATA4 transcriptional activity. In this assay, we cotransfected the cells with a GATA4 protein expression vector and a reporter vector with tandem GATA4 binding sites (Figure 3C). Previously we have reported that compound 1 inhibited the GATA4–NKX2-5 transcriptional synergy at micromolar concentrations (IC50 = 3 μM).[29]
(§2) The plasmids expressing mouse GATA4 protein, pMT2-GATA4, and empty pMT2 were gifts from D. B. Wilson (Department of Pediatrics, St. Louis Children’s Hospital, St. Louis, MO).[44] The plasmids expressing mouse NKX2-5 protein, pMT2-NKX2-5, have been described earlier.[28] The luciferase reporter plasmid used in GATA4–NKX2-5 transcriptional synergy assay and NKX transcriptional assay, pGL3-3xHA, contains three high affinity binding sites for NKX2-5.[28] The luciferase reporter plasmid used in GATA transcriptional assay, NP-112, contains tandem GATA-sites and minimal promoter of rat brain natriuretic peptide (BNP) gene.[45] The pGL3-BNP luciferase reporter containing −534/+4 bp rat BNP proximal promoter described previously was used in hypertrophy assay.[46]
(§3) The primary screening assay of compounds’ effect on GATA4–NKX2-5 transcriptional synergy and COS-1 cell culturing has been described earlier.[33] […] (Kinnunen et al., unpublished observation). Briefly, COS-1 cells were seeded at 14 000 cells/well in Isoplate-96 microplates (PerkinElmer, Turku, Finland) and grown overnight. The cells were transfected with the luciferase reporter plasmid pGL3-3xHA 100 ng/well and equal amounts of expression plasmids pMT2-GATA4 and pMT2-NKX2-5 total 50 ng/well. To verify the synergistic effect, the cells were transfected with pMT2-GATA4 or pMT2-NKX2-5 25 ng/well, and the total DNA concentration was adjusted to 50 ng/well with empty pMT2 plasmid. In NKX2-5 and GATA4 luciferase reporter assays, the cells were transfected with reporter plasmid pGL3-3xHA or NP-112 (100 ng/well) and expression plasmid pMT2-NKX2-5 or pMT2-GATA4 (25 ng/well). The ratio of DNA/transfection reagent (Fugene 6, Promega) was 1:3 in all assays. The transfections were performed in serum and antibiotics free media for 6 h. The cells were treated with compounds or vehicle (0.1% DMSO) for 24 h, and the luminescence was measured using neolite Reporter Gene Assay System (PerkinElmer, Turku, Finland) and Victor2 plate reader (PerkinElmer, Turku, Finland).
(§4) Raw luciferase data were analyzed in Excel, and clear outliers were removed from triplicates by using the Grubb’s test. Data analysis was performed using R.[49] The luciferase data were first normalized on the basis of the combined mean value of controls. For data visualization and creation of figures, the following R packages were used: ggplot2, cowplot, RColorBrewer, and pheatmap. The heatmaps of the toxicity data were produced with GraphPad Prism 7.00 (GraphPad Software, La Jolla, CA). Statistical significance of luciferase reporter assay data was evaluated by randomized block analysis of variance followed by Dunnett’s post hoc test. […]

For test [3], the target named is T3, GATA4 transcriptional activity (Mus musculus, UniProt Q08369).
T3 construct: expressed in transfected cells; host or cells: COS-1
Put plainly: GATA4 luciferase reporter assay (tandem GATA-site reporter, COS-1 cells). How it is done:
as §1, §2, §3, §4
Background: In a reporter assay the amount or activity of a reporter protein is the signal.

[4] abbreviates: COS-1, compound 3 µM, luciferase reporter activity, spread in separate STDEV column.
Where [5] appears, read: COS-1, compound 10 µM, luciferase reporter activity, spread in separate STDEV column.
[6] abbreviates: COS-1, 3 µM, luciferase reporter activity, % of control.
Setting [7] is: 3 µM compound, GATA4–NKX2-5 transcriptional synergy reporter, COS-1 cells.
[8] abbreviates: 3 µM compound, NKX2-5 luciferase reporter, COS-1 cells.
[9] abbreviates: 3 µM compound, GATA4 luciferase reporter, COS-1 cells.
[10] abbreviates: 10 µM compound, GATA4–NKX2-5 transcriptional synergy reporter, COS-1 cells.
Where [11] appears, read: 10 µM compound, NKX2-5 luciferase reporter, COS-1 cells.
[12] abbreviates: 10 µM compound, GATA4 luciferase reporter, COS-1 cells.
Where [13] appears, read: COS-1, compound at 3 µM, luciferase reporter activity, % of control.
The mark [14] stands for this setting: COS-1, 10 µM, luciferase reporter activity, % of control.

T2 sequence (P42582 whole entry): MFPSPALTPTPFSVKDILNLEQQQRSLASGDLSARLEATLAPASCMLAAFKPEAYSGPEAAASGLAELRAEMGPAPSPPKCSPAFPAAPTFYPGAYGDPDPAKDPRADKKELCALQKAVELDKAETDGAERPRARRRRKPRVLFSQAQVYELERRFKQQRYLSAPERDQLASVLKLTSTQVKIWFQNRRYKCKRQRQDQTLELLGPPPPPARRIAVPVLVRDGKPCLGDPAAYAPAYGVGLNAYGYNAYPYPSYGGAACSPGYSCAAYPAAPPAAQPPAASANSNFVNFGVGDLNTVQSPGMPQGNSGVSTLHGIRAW
T1 sequence (Q08369 whole entry): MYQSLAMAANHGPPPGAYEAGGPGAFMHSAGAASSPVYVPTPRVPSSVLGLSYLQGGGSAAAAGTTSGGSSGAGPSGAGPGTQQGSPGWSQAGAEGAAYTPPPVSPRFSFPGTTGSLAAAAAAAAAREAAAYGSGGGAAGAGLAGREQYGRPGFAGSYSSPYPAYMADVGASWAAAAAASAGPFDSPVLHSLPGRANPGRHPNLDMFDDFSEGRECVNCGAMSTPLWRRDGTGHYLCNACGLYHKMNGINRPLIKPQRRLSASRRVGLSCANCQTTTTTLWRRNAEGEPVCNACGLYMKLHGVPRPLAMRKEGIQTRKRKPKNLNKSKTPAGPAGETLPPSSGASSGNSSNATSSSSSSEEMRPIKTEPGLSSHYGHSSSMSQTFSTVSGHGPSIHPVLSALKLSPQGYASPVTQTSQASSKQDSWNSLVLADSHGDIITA
T1 sequence (P42582 whole entry): as the sequence (P42582 whole entry) above
T3 sequence (Q08369 whole entry): as the sequence (Q08369 whole entry) above

Consider `Cc1onc(-c2ccccc2)c1C(=O)Nc1nc(C(C)(C)C)cs1` [Compound 4k, N-[4-(tert-Butyl)thiazol-2-yl]-5-methyl-3-phenylisoxazole-4-carboxamide], for which the activity at 3 µM in test [1] (setting [4]) amounted to 117%; in test [2] (setting [4]) it was 97.7%; in test [3] (setting [4]), 109%. Also, the values for the activity at 10 µM in test [1] (setting [5]) and in test [3] (setting [5]) were 115% and 114%, respectively.
Consider `Cc1onc(-c2ccccc2)c1C(=O)Nc1ccc(C(=O)OCCCC#N)cc1` [Compound 10b], for which the values for the activity at 3 µM in test [1] (setting [4]), in test [2] (setting [4]) and in test [3] (setting [4]) were 93%, 105% and 103%, respectively. Further, the activity at 10 µM in test [3] (setting [5]) is 114%.
As for `Cc1onc(-c2ccccc2)c1C(=O)Nc1ccc(C(=O)OCCCCC#N)cc1` [Compound 10c], the activity at 3 µM came to 101% in test [1] (setting [4]), 102% in test [2] (setting [4]) and 109% in test [3] (setting [4]). For the same compound, the activity at 10 µM in test [2] (setting [5]) came out at 147%; in test [3] (setting [5]), 102%.
Regarding `CCC(=O)c1ccc(OCc2c(-c3ccccc3)noc2C)cc1` [Compound 34a, 1-[4-[(5-Methyl-3-phenylisoxazol-4-yl)methoxy]phenyl]propan-1-one], the figures for the activity at 3 µM in test [1] (setting [6]), in test [2] (setting [6]) and in test [3] (setting [6]) were 90.9%, 111% and 106%, respectively.
Take `Cc1onc(-c2ccccc2)c1COc1ccc(C(=O)OCCCC#N)cc1` [Compound 35b, 3-Cyanopropyl 4-[(5-Methyl-3-phenylisoxazol-4-yl)methoxy]benzoate]: the activity at 3 µM in test [1] (setting [7]) stood at 85.5%; in test [2] (setting [8]), 82.5%; in test [3] (setting [9]) it was 73.9%.
Turning to `CCc1noc(C)c1C(=O)Nc1ccc(N(CC)CC)cc1` [Compound 39b], the activity at 3 µM in test [1] (setting [7]) came out at 97.5%; in test [2] (setting [8]), 124%; in test [3] (setting [9]) it was 120%. Also, the activity at 10 µM in test [1] (setting [10]) was 104%; in test [2] (setting [11]) it was 164%; in test [3] (setting [12]) it was 143%.
Consider `CCN(CC)c1ccc(NC(=O)c2c(-c3ccccc3Cl)noc2C)cc1` [Compound 39k], for which the activity at 3 µM in test [1] (setting [13]) was determined as 107%; in test [2] (setting [13]), 157%; in test [3] (setting [13]) it was 86.1%. In addition, the “effect on NKX2-5 transcriptional activity (in words)” value in test [2] was “did not affect”. Also, the “effect on GATA4 transcriptional activity (in words)” value in test [3] (10 µM) is reported as “slightly increased”. The activity at 10 µM in test [3] (COS-1, compound at 10 µM, luciferase reporter activity, % of control) came out at 112%.
For the compound `CCN(CC)c1ccc(NC(=O)c2c(-c3ccoc3)noc2C)cc1` [Compound 39n], the figures for the activity at 3 µM in test [1] (setting [7]), in test [2] (setting [8]) and in test [3] (setting [9]) were 119%, 122% and 108%, respectively. Besides, the activity at 10 µM amounted to 105% in test [1] (setting [10]) and 106% in test [2] (setting [11]).
Consider `CCN(CC)c1ccc(NC(=O)c2c(-c3cc(C)on3)noc2C)cc1` [Compound 39o], for which the activity at 3 µM is 97.1% in test [1] (setting [4]), 101% in test [2] (setting [4]) and 89.2% in test [3] (setting [4]). In addition, the results for the activity at 10 µM in test [1] (setting [5]) and in test [3] (setting [5]) were 102% and 101%, respectively.
Regarding `CCN(CC)c1ccc(NC(=O)c2c(-c3ccc(C)s3)noc2C)cc1` [Compound 39p], in test [1] (setting [5]), the activity at 10 µM is 102%. Moreover, the activity at 3 µM in test [2] (setting [4]) came out at 83.8%; in test [3] (setting [4]), 85.9%.
Turning to `CCN(CC)c1ccc(NC(=O)c2c(C)nc3ccccn23)cc1` [Compound 47ab], the activity at 3 µM in test [1] (setting [6]) came to 83.4%; in test [2] (setting [6]) it was 106%; in test [3] (setting [6]), 127%.
Consider `CCN(CC)c1ccc(NC(=O)c2cc(C)oc2-c2cc(C)on2)cc1` [Compound 47h], for which the values for the activity at 3 µM in test [1] (setting [4]), in test [2] (setting [4]) and in test [3] (setting [4]) were 118%, 114% and 134%, respectively. Moreover, the activity at 10 µM was 104% in test [1] (setting [5]), 106% in test [2] (setting [5]) and 143% in test [3] (setting [5]).
As for `CCN(CC)c1ccc(NC(=O)c2cc(C)sc2-c2cc(C)on2)cc1` [Compound 47l], the activity at 3 µM in test [1] (setting [4]) was 105%; in test [3] (setting [4]) it was 119%. Further, the “effect on NKX2-5 transcriptional activity (in words)” value in test [2] is given as “did not affect”.
As to `CC(C)c1ccc(NC(=O)c2noc3c2CCc2sccc2-3)cc1` [Compound 66], the activity at 3 µM in test [1] (COS-1, GATA4-NKX2-5 transcriptional synergy luciferase reporter assay, compound at 3 µM) is 132%; in test [2] (COS-1, NKX2-5 luciferase reporter assay, compound at 3 µM), 122%. Also, the activity at 10 µM in test [1] (COS-1, GATA4-NKX2-5 transcriptional synergy luciferase reporter assay, compound at 10 µM) came out at 128%; in test [2] (COS-1, NKX2-5 luciferase reporter assay, compound at 10 µM), 106%; in test [3] (COS-1, GATA4 luciferase reporter assay, compound at 10 µM), 124%.
`CCN(c1ccc(NC(=O)c2c(C)noc2-c2cc(C)on2)cc1)C(C)C` [Compound 74]: the activity at 10 µM in test [1] (setting [10]) came to 96.6%; in test [2] (setting [11]) it was 88.8%; in test [3] (setting [12]), 125%. Further, the figures for the activity at 3 µM in test [2] (setting [8]) and in test [3] (setting [9]) were 85.2% and 103%, respectively.
In the case of `CN(C)c1ccc(/N=C/c2c[nH]nc2-c2ccc(F)cc2)cc1` [Compound 75], the activity at 3 µM is 110% in test [1] (setting [6]), 108% in test [2] (setting [6]) and 107% in test [3] (setting [6]). For the same compound, the activity at 10 µM in test [1] (setting [14]) came out at 100%; in test [2] (setting [14]), 145%; in test [3] (setting [14]) it was 122%.
As for `Cc1onc(-c2ccccc2)c1C(=O)Nc1ccc(C(=O)OCCC#N)cc1` [Compound 76], the activity at 3 µM in test [1] (setting [4]) was determined as 98.7%; in test [2] (setting [4]) it was 132%; in test [3] (setting [4]), 97.1%. Besides, the results for the activity at 10 µM in test [1] (setting [5]), in test [2] (setting [5]) and in test [3] (setting [5]) were 104%, 126% and 73.4%, respectively.
On to `C#CC[N+](CC)(CC)c1ccc(NC(=O)c2c(-c3ccccc3)noc2C)cc1` [Compound 77], for which the activity at 3 µM in test [1] (setting [6]) amounted to 84%; in test [2] (setting [6]), 97.9%; in test [3] (setting [6]), 101%. The activity at 10 µM in test [1] (setting [14]) worked out at 101%; in test [2] (setting [14]) it was 117%; in test [3] (setting [14]), 95.3%.
For the compound `CCN(CC)c1ccc(-n2c(=O)c3c(C)onc3c3ccccc32)cc1` [Compound 78], in test [1], the “effect on GATA4–NKX2-5 transcriptional synergy (in words)” value was “no effect”. Further, the results for the activity at 3 µM in test [1] (setting [7]), in test [2] (setting [8]) and in test [3] (setting [9]) were 84.1%, 105% and 101%, respectively. The activity at 10 µM in test [1] (setting [10]) is 100%; in test [2] (setting [11]) it was 112%; in test [3] (setting [12]), 113%.
